Holding throughout (assay): NCI-60 cell line screen, 48 h
In assay [1] the test system is SR leukemia.
The test system of assay [2] is TK-10 renal.
Assay [3] deals with PC-3 prostate.
In assay [4] the test system is SK-MEL-5 melanoma.
The subject of assay [5] is UO-31 renal.
The test system of assay [6] is IGROV1 ovarian.
Assay [7] relates to A498 renal.
Assay [8] has as its system OVCAR-8 ovarian.
The test system of assay [9] is MDA-MB-435.
For assay [10], the system named is OVCAR-5 ovarian.

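Cells were grown in 96-well plates and exposed to each compound for 48 hours at five concentrations; endpoints were interpolated linearly between bracketing concentrations, or set to the highest concentration if not reached. At the GI50, growth is halved. TGI denotes the concentration required for complete inhibition of growth.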 Bounds are passed on as bounds.

For `NC(=O)c1ccccc1NC(=O)c1ccccc1Cl`, the GI50 in [1], in assay [2], in assay [3], in assay [4], in assay [5] and in assay [6] was > 100000 nM in each case. Besides, the GI50 is 56200 nM in assay [7], > 100000 nM in [8], 58900 nM in assay [9] and > 100000 nM in [10]. Further, the TGI in assay [1], in [2], in assay [3], in [4], in assay [5] and in assay [6] was > 100000 nM throughout. The TGI in [7], in assay [8], in assay [9] and in assay [10] was > 100000 nM in each case.
Take `COc1ccc(-c2cc(-c3cccc(NS(C)(=O)=O)c3)nc(N)c2C#N)cc1`: the GI50 in assay [1] is 47 nM; in assay [2], 278 nM; in [3], 97.1 nM; in assay [4], 113 nM; in assay [5], 124 nM; in [6], 119 nM. Further, the GI50 in [7] is 116 nM; in assay [8], 222 nM; in assay [9], 25.6 nM; in assay [10] it was 416 nM. Also, the TGI is 25700 nM in [1]; > 47500 nM in assay [2]; 14200 nM in assay [3]; 4920 nM in [4]; > 43700 nM in assay [5]; > 34800 nM in assay [6]. The TGI in assay [7] is 54000 nM; in [8] it was 34600 nM; in assay [9] it was 121 nM; in [10], > 64600 nM.
As to `Fc1ccc2c(c1)C1=C(CO2)C(c2ccc(Cl)cc2)NC(=S)N1` (stereo not given), the GI50 is 13000 nM in assay [1]; 59100 nM in assay [2]; 37200 nM in [3]; 19200 nM in assay [4]; 27800 nM in [5]; 24300 nM in [6]. Moreover, the GI50 is 17400 nM in [7], 42600 nM in assay [8], 21600 nM in assay [9] and 28200 nM in assay [10]. Besides, the TGI in [1] is 50300 nM; in assay [2], > 100000 nM; in assay [3], > 100000 nM; in [4], 49500 nM; in [5], 84000 nM; in assay [6], 61000 nM. Further, the TGI in assay [7] was 73700 nM; in assay [8], > 100000 nM; in assay [9], 51100 nM; in [10], 84300 nM.
With `O=C1c2ccccc2-c2c1c1ccc([N+](=O)[O-])cc1c(=O)n2CCCNCCO`, the GI50 in [1] is 35.5 nM; in assay [2], 1370 nM; in [3], 90.7 nM; in assay [4] it was 87.5 nM; in assay [5], 98.9 nM; in [6], 515 nM. The GI50 in assay [7] is 1390 nM; in assay [8] it was 225 nM; in assay [9], 950 nM; in assay [10] it was 520 nM. For the same compound, the TGI was found to be 1780 nM in assay [1]; 4100 nM in assay [2]; 1520 nM in assay [3]; 349 nM in assay [4]; 1060 nM in [5]; 2450 nM in [6]. Also, the TGI in assay [7] amounted to 3750 nM; in assay [8], 3640 nM; in [9], 2670 nM; in assay [10] it was 1920 nM.
On to `COc1ccc(Cn2cc3c(c2-c2cc(OC)c(OC)c(OC)c2)CCc2cnoc2-3)cc1N`, for which the GI50 is 32 nM in assay [1]; 68.9 nM in [2]; 75.1 nM in assay [3]; 32.5 nM in assay [4]; 228 nM in assay [5]; 81.8 nM in [6]. In addition, the GI50 was 23.9 nM in assay [7], 70.2 nM in assay [8], 14.1 nM in assay [9] and 324 nM in assay [10]. In addition, the TGI in [1] was 1390 nM; in assay [2], > 100000 nM; in assay [3], > 100000 nM; in [4], 1240 nM; in [5], > 50900 nM; in [6], > 72600 nM. Besides, the TGI in assay [7] was 524 nM; in assay [8] it was > 100000 nM; in assay [9], 38.4 nM; in assay [10] it was > 100000 nM.
Consider `COc1cccc(CCC(=O)c2cc3c(N)c(C(=O)Nc4cccc(Cl)c4C)sc3nc2C)c1`, for which the GI50 in assay [1] was 431 nM; in assay [2], 6460 nM; in assay [3], 746 nM; in [4], 650 nM; in [5], 860 nM; in assay [6], 628 nM. The GI50 was 248 nM in assay [7], 1440 nM in [8], 197 nM in assay [9] and 2680 nM in assay [10]. The TGI in [1] was > 100000 nM; in assay [2] it was > 100000 nM; in [3] it was > 100000 nM; in assay [4], 11000 nM; in [5], > 100000 nM; in [6], > 100000 nM. In addition, the TGI in assay [7] is 2470 nM; in [8], > 100000 nM; in assay [9], 612 nM; in assay [10], > 100000 nM.
Regarding `COc1cc(C2CC(=O)Nc3c2ccc2ccccc32)cc(Br)c1OC` (stereo not given), the GI50 in [1] was 350 nM; in assay [2], 13400 nM; in assay [3] it was 490 nM; in [4] it was 414 nM; in [5], 2240 nM; in assay [6], 860 nM. For the same compound, the GI50 was 272 nM in [7], 772 nM in assay [8], 138 nM in assay [9] and 2010 nM in assay [10]. The TGI in assay [1] was 16700 nM; in [2], > 100000 nM; in [3], > 100000 nM; in [4], 9930 nM; in assay [5], > 34500 nM; in [6], > 42300 nM. Besides, the TGI in assay [7] was 2290 nM; in assay [8], > 51100 nM; in assay [9], 464 nM; in [10], > 79300 nM.
